Assay results from ChEMBL document CHEMBL3046389, “Synthesis and biological evaluation of novel hydroquinone dimethyl ethers as potential anticancer and antimicrobial agents” (2013).
Values after ≈ are worked out from the molar mass of the structure shown.

Experiments:
Assay type in all cases: functional
786-0 = experiment: Anticancer activity against Homo sapiens (human) 786-0 cells after 48 hr by SRB assay; conditions: 786-0, 48 h
HOP-62 = experiment: Growth inhibition of Homo sapiens (human) HOP62 cells at 10 uM after 48 hr by SRB assay; conditions: HOP-62, 48 h, read-out: GI
A549 = experiment: Growth inhibition of Homo sapiens (human) A549/ATCC cells at 10 uM after 48 hr by SRB assay; conditions: A549, 48 h, read-out: GI
DU-145 = experiment: Anticancer activity against Homo sapiens (human) DU145 cells after 48 hr by SRB assay; conditions: DU-145, 48 h
KM12 [1] = experiment: Growth inhibition of Homo sapiens (human) KM12 cells at 10 uM after 48 hr by SRB assay; conditions: KM12, 48 h, read-out: GI
RXF 393 = experiment: Growth inhibition of Homo sapiens (human) RXF393 cells at 10 uM after 48 hr by SRB assay; conditions: RXF 393, 48 h, read-out: GI
NCI-H23 = experiment: Growth inhibition of Homo sapiens (human) NCI-H23 cells at 10 uM after 48 hr by SRB assay; conditions: NCI-H23, 48 h, read-out: GI
HT-29 = experiment: Anticancer activity against Homo sapiens (human) HT-29 cells after 48 hr by SRB assay; conditions: HT-29, 48 h
SF-539 = experiment: Anticancer activity against Homo sapiens (human) SF539 cells after 48 hr by SRB assay; conditions: SF-539, 48 h
BT-549 [2] = experiment: Anticancer activity against Homo sapiens (human) BT549 cells after 48 hr by SRB assay; conditions: BT-549, 48 h
MDA-MB-435 = experiment: Growth inhibition of Homo sapiens (human) MDA-MB-435 cells at 10 uM after 48 hr by SRB assay; conditions: MDA-MB-435, 48 h, read-out: GI
SNB-75 = experiment: Anticancer activity against Homo sapiens (human) SNB75 cells after 48 hr by SRB assay; conditions: SNB-75, 48 h
SW-620 = experiment: Growth inhibition of Homo sapiens (human) SW620 cells at 10 uM after 48 hr by SRB assay; conditions: SW-620, 48 h, read-out: GI
NCI-H460 [3] = experiment: Anticancer activity against Homo sapiens (human) NCI-H460 cells after 48 hr by SRB assay; conditions: NCI-H460, 48 h
BT-549 [4] = experiment: Growth inhibition of Homo sapiens (human) BT549 cells at 10 uM after 48 hr by SRB assay; conditions: BT-549, 48 h, read-out: GI
RPMI-8226 = experiment: Anticancer activity against Homo sapiens (human) RPMI8226 cells after 48 hr by SRB assay; conditions: RPMI-8226, 48 h
K562 = experiment: Growth inhibition of Homo sapiens (human) K562 cells at 10 uM after 48 hr by SRB assay; conditions: K562, 48 h, read-out: GI
KM12 [5] = experiment: Anticancer activity against Homo sapiens (human) KM12 cells after 48 hr by SRB assay; conditions: KM12, 48 h
SN12C = experiment: Growth inhibition of Homo sapiens (human) SN12C cells at 10 uM after 48 hr by SRB assay; conditions: read-out: GI
Escherichia coli = experiment: Antimicrobial activity against Escherichia coli ATCC 11775 after 48 hr by two-fold serial broth dilution method; conditions: ATCC 11775, 48 h
SF-268 = experiment: Anticancer activity against Homo sapiens (human) SF268 cells after 48 hr by SRB assay; conditions: SF-268, 48 h
NCI-H460 [6] = experiment: Growth inhibition of Homo sapiens (human) NCI-H460 cells at 10 uM after 48 hr by SRB assay; conditions: NCI-H460, 48 h, read-out: GI
MOLT-4 [7] = experiment: Anticancer activity against Homo sapiens (human) MOLT4 cells after 48 hr by SRB assay; conditions: MOLT-4, 48 h
T47D = experiment: Anticancer activity against Homo sapiens (human) T47D cells after 48 hr by SRB assay
MCF7 = experiment: Growth inhibition of Homo sapiens (human) MCF7 cells at 10 uM after 48 hr by SRB assay; conditions: MCF7, 48 h, read-out: GI
MOLT-4 [8] = experiment: Growth inhibition of Homo sapiens (human) MOLT4 cells at 10 uM after 48 hr by SRB assay; conditions: MOLT-4, 48 h, read-out: GI
OVCAR-5 = experiment: Anticancer activity against Homo sapiens (human) OVCAR5 cells after 48 hr by SRB assay; conditions: OVCAR-5, 48 h
HL-60(TB) = experiment: Anticancer activity against Homo sapiens (human) HL-60(TB) cells after 48 hr by SRB assay; conditions: HL-60, 48 h
SK-OV-3 [9] = experiment: Growth inhibition of Homo sapiens (human) SKOV3 cells at 10 uM after 48 hr by SRB assay; conditions: SK-OV-3, 48 h, read-out: GI
UACC-257 = experiment: Anticancer activity against Homo sapiens (human) UACC257 cells after 48 hr by SRB assay; conditions: UACC-257, 48 h
PC-3 = experiment: Growth inhibition of Homo sapiens (human) PC3 cells at 10 uM after 48 hr by SRB assay; conditions: PC-3, 48 h, read-out: GI
UACC-62 = experiment: Growth inhibition of Homo sapiens (human) UACC62 cells at 10 uM after 48 hr by SRB assay; conditions: UACC-62, 48 h, read-out: GI
SK-OV-3 [10] = experiment: Anticancer activity against Homo sapiens (human) SKOV3 cells after 48 hr by SRB assay; conditions: SK-OV-3, 48 h
[11] = read-out: LC50 (the source's name)

COc1ccc(OC)c(/C=C/C(=O)N/N=C/c2ccc(Cl)cc2)c1
GI50 (786-0): 0.326 µM | TGI (786-0): > 100 µM | CC50 (786-0; [11]): > 100 µM | inhibition of growth at 10 µM (HOP-62): 62.1% | inhibition of growth at 10 µM (A549): 72.2% | GI50 (DU-145): 0.217 µM | TGI (DU-145): 8.4 µM | CC50 (DU-145; [11]): > 100 µM | inhibition of growth at 10 µM (KM12 [1]): 82% | inhibition of growth at 10 µM (RXF 393): 120% | inhibition of growth at 10 µM (NCI-H23): 65.2% | GI50 (HT-29): 0.0435 µM | TGI (HT-29): 1.52 µM | CC50 (HT-29; [11]): > 100 µM | GI50 (SF-539): 0.258 µM | TGI (SF-539): 3.16 µM | CC50 (SF-539; [11]): > 100 µM | GI50 (BT-549 [2]): 1.17 µM | TGI (BT-549 [2]): > 100 µM | CC50 (BT-549 [2]; [11]): > 100 µM | inhibition of growth at 10 µM (MDA-MB-435): 132% | GI50 (SNB-75): 0.098 µM | TGI (SNB-75): 1.17 µM | CC50 (SNB-75; [11]): > 100 µM | inhibition of growth at 10 µM (SW-620): 80.1% | GI50 (NCI-H460 [3]): 0.119 µM | TGI (NCI-H460 [3]): 13.8 µM | CC50 (NCI-H460 [3]; [11]): > 100 µM | inhibition of growth at 10 µM (BT-549 [4]): 36.5% | GI50 (RPMI-8226): 0.3 µM | TGI (RPMI-8226): 15.7 µM | CC50 (RPMI-8226; [11]): > 100 µM | inhibition of growth at 10 µM (K562): 86% | GI50 (KM12 [5]): 0.0522 µM | TGI (KM12 [5]): 8.48 µM | CC50 (KM12 [5]; [11]): > 100 µM | inhibition of growth at 10 µM (SN12C): 53.8% | MBC (Escherichia coli): 100 µg/mL (≈ 290 µM) | MIC (Escherichia coli): 50 µg/mL (≈ 145 µM) | GI50 (SF-268): 0.718 µM | TGI (SF-268): > 100 µM | CC50 (SF-268; [11]): > 100 µM | inhibition of growth at 10 µM (NCI-H460 [6]): 94.8% | GI50 (MOLT-4 [7]): 0.523 µM | TGI (MOLT-4 [7]): > 100 µM | CC50 (MOLT-4 [7]; [11]): > 100 µM | GI50 (T47D): 0.16 µM | TGI (T47D): > 100 µM | CC50 (T47D; [11]): > 100 µM | inhibition of growth at 10 µM (MCF7): 91.1% | inhibition of growth at 10 µM (MOLT-4 [8]): 73.7% | GI50 (OVCAR-5): 10.9 µM | TGI (OVCAR-5): > 100 µM | CC50 (OVCAR-5; [11]): > 100 µM | GI50 (HL-60(TB)): 0.0785 µM | TGI (HL-60(TB)): 0.483 µM | CC50 (HL-60(TB); [11]): > 100 µM | inhibition of growth at 10 µM (SK-OV-3 [9]): 105% | GI50 (UACC-257): 36.5 µM | LC50 (50% lethal concentration) (UACC-257): > 100 µM | TGI (UACC-257): > 100 µM | inhibition of growth at 10 µM (PC-3): 73.8% | inhibition of growth at 10 µM (UACC-62): 57.9% | GI50 (SK-OV-3 [10]): 0.149 µM | LC50 (SK-OV-3 [10]): > 100 µM | TGI (SK-OV-3 [10]): 13.9 µM
